Measurements: article PMC6332427, “Drug Discovery of Host CLK1 Inhibitors for Influenza Treatment” (Molecules, 2015)
Converted amounts (≈) assume the structure as drawn. “And” between values parts separate entries of the source, which are not always exact repeats. Equal entries are not always repeated. Where two headings read alike, the source gives them in different places.

Experiments:
recombinant human CLK1 = target: T1, recombinant human CLK1 (Homo sapiens, UniProt P49759); assay: CLK1 inhibitory assay (Kinase-Glo luminescent kinase assay, MBP substrate); assay type: biochemical
T1 construct: The primer of human full length CLK1 gene was as follows; made in house; host or cells: Sf9 insect cells (baculovirus, pFastBac1)
T1 sequence (P49759 whole entry): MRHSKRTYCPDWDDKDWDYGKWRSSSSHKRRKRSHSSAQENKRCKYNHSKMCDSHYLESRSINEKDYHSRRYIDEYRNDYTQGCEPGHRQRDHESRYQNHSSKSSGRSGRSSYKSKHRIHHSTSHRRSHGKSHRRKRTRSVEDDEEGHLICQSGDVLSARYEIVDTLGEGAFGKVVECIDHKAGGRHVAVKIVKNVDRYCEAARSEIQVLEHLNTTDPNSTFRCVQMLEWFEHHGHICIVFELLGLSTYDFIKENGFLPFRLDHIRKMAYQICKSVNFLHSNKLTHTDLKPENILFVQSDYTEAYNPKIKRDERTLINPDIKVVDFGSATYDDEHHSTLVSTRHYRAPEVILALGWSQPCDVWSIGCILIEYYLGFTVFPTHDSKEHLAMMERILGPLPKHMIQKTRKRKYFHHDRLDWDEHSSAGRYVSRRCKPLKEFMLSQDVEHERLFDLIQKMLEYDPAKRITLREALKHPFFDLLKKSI
Method: The optimal conditions were dependent on the largest change in luminescence when comparing kinase reaction wells with control wells.
The kinase assay in this study utilized appropriate concentration of recombinant purified protein CLK1 in the presence of MBP as the substrate, MgCl2, MnCl2, ATP in kinase buffer (10 mM Tris, 1 mM EGTA, 100 μM sodium orthovanadate, 10 μM p-nitrophenyl phosphate (PNP), pH7.4) in a reaction volume of 20 μL. The reaction system were incubated at 25 °C for appropriate time. The Kinase-Glo® Luminescent Kinase Assay Platform was used to measure kinase activity by quantitating the amount of ATP, the signals of which were recorded using PerkinElmer’s EnSpire Multilabel Plate Reader. All the above components were added to the plate by automatic dispenser (EDR-384S, BioTec, Tokyo, Japan). A series of parameters containing the amount of kinase (1.16–298 ng/mL), MBP (3.125–150 μg/mL), ATP (0.1–100 μM), Mg^2+ (0.01–100 mM), Mn^2+ (0.5–20 mM), the percentage of DMSO (0.03%–10%), reaction time and temperature were optimized respectively in order to get best performance. Z′ factor values was calculated as described.
The inhibition percentage of the compounds against CLK1 were calculated according to the formula: (1) inhibition%=[(RLUsample−RLUpositive)/(RLUnegative−RLUpositive)]×100% where the RLUsample, RLUpositive, RLUnegative are the measured RLU values with treatment of test compounds, the wells free of test compounds, and that of without kinase, respectively.

MDCK cells [1] = settings: dog, 72 h
in vitro = settings: dog
[2] = test system: influenza virus A/PR/8/34 (H1N1); assay: in vitro; settings: MDCK, H1N1
[3] = test system: influenza virus A/PR/8/34 (H1N1); assay: organism not typed; settings: MDCK
[4] = test system: influenza virus A/PR/8/34 (H1N1)
MDCK cells [5] = assay: Cytotoxicity assay in MDCK cells (MTT, 72 h); settings: MDCK cells, 72 h, MTT; for CC0 (maximal non-cytotoxic concentration): more than 90% cells viable
[6] = test system: influenza virus A/PR/8/34 (H1N1); assay: microbe, parasite or virus in culture; settings: unidentified influenza virus, H1N1|PR/8, MDCK, read-out: EC50s in time-of-addition assays
[7] = Cytotoxicity assay in MDCK cells (MTT, 72 h); settings: dog
[8] = Post-Treatment Assay SI (selective index, CC50/EC50), post-treatment
[9] = Pre-Treatment Assay SI (selective index, CC50/EC50), pre-treatment
[10] = Simultaneous Treatment Assay SI (selective index, CC50/EC50), simultaneous treatment
[11] = 24 h, read-out: Simultaneous Treatment Assay EC50
[12] = read-out: Post-Treatment Assay EC50
[13] = read-out: Pre-Treatment Assay EC50
[14] = Kinase-Glo assay, read-out: IC50 (converted)

| Compound | IC50 (recombinant human CLK1; IC50, Kinase-Glo assay) | CC0 (maximal non-cytotoxic concentration) (MDCK cells [1]) [µg/mL] | CC50 at 72 h (in vitro) [µg/mL] | selectivity ratio at 24 h [2, 8] | selectivity ratio at 24 h [2, 9] | selectivity ratio at 24 h [2, 10] | EC50 [3, 11] [µg/mL] | EC50 [3, 12] [µg/mL] | EC50 [3, 13] [µg/mL] | CC0 (maximal non-cytotoxic concentration) (MDCK cells [5]) [µg/mL] | CC50 at 72 h [7] [µg/mL] | other results |
| --- | --- | --- | --- | --- | --- | --- | --- | --- | --- | --- | --- | --- |
| Oc1cc(O)cc(/C=C/c2ccccc2)c1 [J14848, Pinosylvin] | < 236 µM and 395 µM | 10 | 18.3 (≈ 86 µM) | 3.23 | 2.42 | 3.46 | 5.28 ± 2.45 (≈ 24.9 µM) | 6.65 ± 4.3 (≈ 31.3 µM) | 7.54 ± 5.48 (≈ 35.5 µM) |  |  | concentration above which toxic effects occur (MDCK cells [1]): above 10 μg/mL |
| Hispidulin [J20353] |  |  |  |  |  |  |  |  |  | 30 |  | IC50 (recombinant human CLK1; Kinase-Glo assay): lower than 50 μg/mL; Post-Treatment Assay EC50 [4]: >30 µg/mL; Pre-Treatment Assay EC50 [4]: 18.89 ± 5.1 µg/mL; Simultaneous Treatment Assay EC50 [4]: 5.26 ± 2.48 µg/mL; CC50 (50% cytotoxic concentration) (MDCK cells [5]): 60.35 µg/mL |
| O=C(Oc1cc(O)c2c(c1)O[C@H](c1cc(O)c(O)c(O)c1)[C@@H](O)C2)c1cc(O)c(O)c(O)c1 [J10688, Clypearin] |  | 100 | > 200 | > 11.1 | > 267 | > 167 | 1.2 ± 0.28 (≈ 2.62 µM) | 18.1 ± 3.02 (≈ 39.4 µM) | 0.75 ± 0.13 (≈ 1.64 µM) |  |  | IC50 (recombinant human CLK1; [14]): < 109 µM and 2.62 µM; EC50 [6]: < 20 µg/mL |
| Chebulanin [J12133] |  |  |  |  |  |  |  |  |  | 30 |  | IC50 (recombinant human CLK1; Kinase-Glo assay): lower than 50 μg/mL; Post-Treatment Assay EC50 ([4]; H1N1 (MOI 0.01) incubated with MDCK cells 2 h, then compound, 24 h, mean ± SD): 21.11 ± 11.15 µg/mL; Pre-Treatment Assay EC50 ([4]; H1N1 (MOI 0.01) pre-incubated with compound 2 h at 37 °C before addition to MDCK cells, 24 h, mean ± SD): 15.29 ± 10.35 µg/mL; Simultaneous Treatment Assay EC50 ([4]; compound added along with H1N1 (MOI 0.01) to MDCK cells, 24 h, mean ± SD): 9.84 ± 0.44 µg/mL; Post-Treatment Assay SI (selective index, CC50/EC50) ([4]; post-treatment, MDCK, H1N1): 4.28; Pre-Treatment Assay SI (selective index, CC50/EC50) ([4]; pre-treatment, MDCK, H1N1): 5.90; Simultaneous Treatment Assay SI (selective index, CC50/EC50) ([4]; simultaneous treatment, MDCK, H1N1): 9.17; CC50 (50% cytotoxic concentration) (MDCK cells [5]): 90.27 µg/mL |
| COC(=O)c1cc(O)c(O)c(O)c1 [Methyl gallate] | < 272 µM | 30 |  |  |  |  | > 30 | > 30 | > 30 |  | 69.5 (≈ 377 µM) |  |
| Cc1c([N+](=O)[O-])c(O)c([N+](=O)[O-])c2oc(=O)c(C(=O)Nc3cccc(C(=O)O)c3)cc12 [J11534] | < 116 µM |  |  |  |  |  | > 30 | > 30 | > 30 | 30 | 175 (≈ 408 µM) |  |
| CCCOC(=O)c1cc(O)c(O)c(O)c1 [J25986, Propyl gallate] |  |  |  | 53.2 | 11.4 | 14.1 | 12.9 ± 8.06 (≈ 60.7 µM) | 3.42 ± 0.2 (≈ 16.1 µM) | 15.9 ± 6.94 (≈ 75.1 µM) | 30 |  | IC50 (recombinant human CLK1; [14]): < 236 µM; CC50 at 72 h ([7]; MDCK cells): 182 µg/mL (≈ 858 µM) |
| COc1cc(/C=C/c2cc(O)cc(O)c2)ccc1O [J14528, Isorhapontigenin] | < 194 µM | 30 | 83.4 (≈ 323 µM) |  | 13.9 |  | > 30 | > 30 | 5.98 ± 2.3 (≈ 23.2 µM) |  |  |  |
| NC(=O)c1ncn([C@@H]2O[C@H](CO)[C@@H](O)[C@H]2O)n1 [Ribavirin, reference compound] |  |  |  |  |  |  | 10.3 ± 2.38 (≈ 42.3 µM) | 13.8 ± 3.47 (≈ 56.4 µM) | 4.36 ± 0.99 (≈ 17.9 µM) |  | > 200 |  |
